Assay results published in ChEMBL document CHEMBL6153019, “A series of indole-derived γ-hydroxy propiolate esters as potent anti-inflammatory agents: Design, synthesis, in-vitro and in-vivo biological studies” (Eur J Med Chem, 2024).
Active and inactive are the calls of the source. No cut-off for these calls is given here.

How the values were obtained:
[1] = tested on: Mus musculus; experiment: Anti-inflammatory activity against female Kunming mouse model xylene-induced auricle edema assessed as inhibition of ear swelling at 100 mg/kg, IP measured after 1 hr relative to control; type: functional; set-up: scale not given: the % may be the effect or the level left
[2] = tested on: RAW264.7; experiment: Anti-inflammatory activity against LPS-Induced mouse RAW264.7 cells assessed as inhibition of Nitric oxide release at 10 uM measured after 18 hrs by Griess reagent assay relative to control; type: functional; set-up: Activity: scale not given: the % may be the effect or the level left; conditions: for inhibition at 10 µM: Mus musculus, RAW264.7
[3] = tested on: RAW264.7; experiment: Anti-inflammatory activity against LPS-induced mouse RAW264.7 cells assessed as downregulation of COX-1 protein expression level incubated for 24 hrs by ELISA method; type: functional, cell-based
[4] = tested on: RAW264.7; experiment: Anti-inflammatory activity against LPS-Induced mouse RAW264.7 cells assessed as inhibition of COX-2 expression level at 5 uM incubated for 24 hrs by ELISA method relative to control; type: functional
[5] = tested on: RAW264.7; experiment: Anti-inflammatory activity against LPS-induced mouse RAW264.7 cells assessed as inhibition of 5-LOX protein expression at 5 uM incubated for 24 hrs by ELISA method relative to control; type: functional
[6] = tested on: RAW264.7; experiment: Anti-inflammatory activity against LPS-induced mouse RAW264.7 cells assessed as inhibition of COX-1 expression at 5 uM incubated for 24 hrs by ELISA method relative to control; type: functional
[7] = tested on: RAW264.7; experiment: Anti-inflammatory activity against LPS-Induced mouse RAW264.7 cells assessed as inhibition of COX-2 at 5 uM incubated for 24 hrs by ELISA method relative to control; type: functional
[8] = tested on: RAW264.7; experiment: Anti-inflammatory activity against LPS-Induced mouse RAW264.7 cells assessed as inhibition of COX-1 expression level at 5 uM incubated for 24 hrs by ELISA method relative to control; type: functional
[9] = tested on: RAW264.7; experiment: Anti-inflammatory activity against LPS-Induced mouse RAW264.7 cells assessed as inhibition of LT release at 5 uM incubated for 24 hrs by LT determination assay relative to control; type: functional
[10] = tested on: RAW264.7; experiment: Anti-inflammatory activity against LPS-Induced mouse RAW264.7 cells assessed as inhibition of TXB-2 release at 5 uM incubated for 24 hrs by LT determination assay relative to control; type: functional; set-up: scale not given: the % may be the effect or the level left
[11] = tested on: RAW264.7; experiment: Anti-inflammatory activity against LPS-Induced mouse RAW264.7 cells assessed as inhibition of TXB-2 release at 1 uM incubated for 24 hrs by LT determination assay relative to control; type: functional
[12] = tested on: RAW264.7; experiment: Anti-inflammatory activity against LPS-Induced mouse RAW264.7 cells assessed as inhibition of PGF1 production at 1 uM incubated for 24 hrs by ELISA method relative to control; type: functional
[13] = tested on: Mus musculus; experiment: Anti-inflammatory activity against female Kunming mouse model xylene-induced auricle edema assessed as inhibition rate of ear swelling measured after 1 hr; type: functional, organism-based
[14] = tested on: RAW264.7; experiment: Anti-inflammatory activity against LPS-Induced mouse RAW264.7 cells assessed as inhibition of PGF1 production at 5 uM incubated for 24 hrs by ELISA method relative to control; type: functional
[15] = tested on: RAW264.7; experiment: Anti-inflammatory activity against LPS-Induced mouse RAW264.7 cells assessed as inhibition of PGE2 production at 10 uM measured after 24 hrs by ELISA method; type: functional
[16] = tested on: RAW264.7; experiment: Anti-inflammatory activity against LPS-Induced mouse RAW264.7 cells assessed as inhibition of PGE2 production at 1uM measured after 24 hrs by ELISA method; type: functional
[17] = tested on: RAW264.7; experiment: Anti-inflammatory activity against LPS-Induced mouse RAW264.7 cells assessed as inhibition of Nitric oxide release at 1 uM measured after 18 hrs by Griess reagent assay relative to control; type: functional
[18] = tested on: RAW264.7; experiment: Antiproliferative activity against mouse RAW264.7 cells assessed as tumor growth inhibition at 10 uM preincubated for 4 hrs followed by compound addition and measured after 20 hrs by MTT assay; type: functional, cell-based
[19] = tested on: RAW264.7; experiment: Anti-inflammatory activity against LPS-Induced mouse RAW264.7 cells assessed as inhibition of Nitric oxide release at 1 uM measured after 18 hrs by Griess reagent assay; type: functional, cell-based
[20] = tested on: RAW264.7; experiment: Anti-inflammatory activity against LPS-Induced mouse RAW264.7 cells assessed as increase inhibition of PGE2 production measured after 24 hrs by ELISA method; type: functional, cell-based
[21] = tested on: RAW264.7; experiment: Anti-inflammatory activity against LPS-Induced mouse RAW264.7 cells assessed as inhibition in COX-2 expression at 1uM incubated for 24 hrs by ELISA method; type: functional, cell-based
[22] = tested on: RAW264.7; experiment: Anti-inflammatory activity against LPS-Induced mouse RAW264.7 cells assessed as inhibition of LT release at 1 uM incubated for 24 hrs by LT determination assay relative to control; type: functional
[23] = tested on: Mus musculus; experiment: Anti-inflammatory activity against female Kunming mouse model xylene-induced auricle edema assessed as inhibition of ear swelling at 50 mg/kg, ip measured after 1 hr relative to control; type: functional; set-up: scale not given: the % may be the effect or the level left
[24] = Cytotoxicity against mouse RAW264.7 cells assessed as cell survival at 5 uM preincubated for 4 hrs followed by compound addition and measured after 20 hrs by MTT assay relative to control; type: toxicity, cell-based; conditions: read-out: Survival
[25] = tested on: RAW264.7; experiment: Anti-inflammatory activity against LPS-Induced mouse RAW264.7 cells assessed as inhibition of PGE2 production at 5 uM measured after 24 hrs by ELISA method; type: functional, cell-based
[26] = Cytotoxicity against mouse RAW264.7 cells assessed as cell survival at 10 uM preincubated for 4 hrs followed by compound addition and measured after 20 hrs by MTT assay relative to control; type: toxicity, cell-based; conditions: read-out: Survival

Cc1ccc(-c2cc(C(F)(F)F)nn2-c2ccc(S(N)(=O)=O)cc2)cc1 [CELECOXIB]
Activity [1]: 93.23%

COC(=O)C#CC1(O)C(=O)Nc2ccc(C)cc21 (configuration not stated)
Activity [2]: 81.68%

COC(=O)C#CC1(O)C(=O)N(Cc2cccc3ccccc23)c2cc(Cl)ccc21 (configuration not stated)
inhibition at 10 µM [2]: 102% | inhibition [3]: Active | inhibition at 5 µM [4]: 42.6% | inhibition at 5 µM [5]: 71.2% | inhibition at 5 µM [6]: 35.3% | inhibition at 5 µM [7]: 42.6% | inhibition at 5 µM [8]: 35.3%

COC(=O)C#CC1(O)C(=O)N(Cc2ccccc2)c2cc(Cl)ccc21 (configuration not stated)
inhibition at 5 µM [9]: 11% | Activity [10]: 21.14% | inhibition at 10 µM [2]: 101% | inhibition at 1 µM [11]: 25.4% | inhibition at 1 µM [12]: 16% | Activity [13]: Dose-dependent-effect | inhibition at 5 µM [14]: 16.6% | inhibition at 5 µM [4]: 38.8% | inhibition at 10 µM [15]: 94.5% | inhibition at 1 µM [16]: 58% | inhibition at 1 µM [17]: 50% | Activity [1]: 85.43% | Activity [18]: Active | inhibition [19]: Active | inhibition [20]: Dose-dependent-effect | inhibition [21]: Active | inhibition at 1 µM [22]: 25.9% | Activity [23]: 78.14% | inhibition at 5 µM [7]: 38.8% | viability at 20 h, 5 µM [24]: 57.9% | inhibition [25]: Active

COC(=O)C#CC1(O)C(=O)N(C)c2cccc(Cl)c21 (configuration not stated)
viability at 20 h, 10 µM [26]: 86.7%

COC(=O)C#CC1(O)C(=O)N(Cc2cccc3ccccc23)c2ccc(Cl)cc21 (configuration not stated)
viability at 20 h, 10 µM [26]: 99.9%
